What was measured:
Type in all cases: cell-based
[1] = test system: primary human total T-cells; assay: T-cell activation assessed by cell proliferation (Cell Trace Violet)
Procedure, shortened: (§1)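 Primary human T-cells (>95% CD3+, negative selection from PBMC) were pre-incubated with inhibitor (e.g. 10, 1.11, 0.123 μM; DMSO <0.1%) for 1 h at 37 °C. They were then stimulated 48 h with plate-bound OKT3 (coated at 10 μg/mL), alone or with 5 μg/mL soluble anti-CD28. Results are fold change over uninhibited, identically stimulated cells.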

[2] = test system: primary human total T-cells; assay: T-cell activation assessed by CD69 expression
Procedure, shortened: as §1

[3] = test system: primary human total T-cells; assay: T-cell activation assessed by cytokine secretion (GM-CSF, IFNγ, TNFα)
Procedure, shortened: as §1

[4] = CD3/CD28 stimulation, CD4 T-cells, read-out: % CP (cell proliferation) (CD4)
[5] = CD3/CD28 stimulation, CD8 T-cells, read-out: % CP (cell proliferation) (CD8)
[6] = CD3 alone stimulation, CD8 T-cells, read-out: % CP (cell proliferation) (CD8)
[7] = CD3/CD28 stimulation, CD4 T-cells, read-out: % CD69+ (CD4)
[8] = CD3/CD28 stimulation, CD8 T-cells, read-out: % CD69+ (CD8)
[9] = CD3 alone stimulation, CD4 T-cells, read-out: % CD69+ (CD4)
[10] = CD3 alone stimulation, CD8 T-cells, read-out: % CD69+ (CD8)
[11] = CD3/CD28 stimulation, read-out: GM-CSF secretion
[12] = CD3/CD28 stimulation, read-out: IFNγ secretion
[13] = CD3/CD28 stimulation, read-out: TNFα secretion
[14] = CD3 alone stimulation, read-out: GM-CSF secretion
[15] = CD3 alone stimulation, read-out: IFNγ secretion
[16] = CD3 alone stimulation, read-out: TNFα secretion

Row | Structure (SMILES) | fold induction at 1.11 µM [1, 4] | fold induction at 10 µM [1, 4] | fold induction at 1.11 µM [1, 5] | fold induction at 10 µM [1, 5] | fold induction at 1.11 µM [1, 6] | fold induction at 10 µM [1, 6] | fold induction at 1.11 µM [2, 7] | fold induction at 10 µM [2, 7] | fold induction at 1.11 µM [2, 8] | fold induction at 10 µM [2, 8] | fold induction at 1.11 µM [2, 9] | fold induction at 10 µM [2, 9] | fold induction at 1.11 µM [2, 10] | fold induction at 10 µM [2, 10] | fold induction at 1.11 µM [3, 11] | fold induction at 1.11 µM [3, 12] | fold induction at 1.11 µM [3, 13] | fold induction at 10 µM [3, 11] | fold induction at 10 µM [3, 12] | fold induction at 10 µM [3, 13] | also measured
1 | C[C@@H](c1cc2c(c(C(F)(F)F)c1)CN(c1cccc(C3(Cc4nncn4C)COC3)c1)C2=O)N1CC[C@H](F)C1 [Compound 412, 6-((S)-1-((S)-3-fluoropyrrolidin-1-yl)ethyl)-2-(3-(3-((4-methyl-4H-1,2,4-triazol-3-yl)methyl)oxetan-3-yl)phenyl)-4-(trifluoromethyl)isoindolin-1-one] | > 4 | > 4 | > 4 | > 4 | > 4 | > 4 | 1.4 to 1.6 | 1.4 to 1.6 | 1.2 to 1.4 | 1.2 to 1.4 | > 1.6 | > 1.6 | 1.4 to 1.6 | 1.4 to 1.6 | > 4 | > 4 | 2.01 to 4 | > 4 | > 4 | > 4 | fold induction at 1.11 µM [3, 14]: > 4; fold induction at 1.11 µM [3, 15]: 3.01 to 4; fold induction at 1.11 µM [3, 16]: 1.51 to 2; fold induction at 10 µM [3, 14]: > 4; fold induction at 10 µM [3, 15]: > 4; fold induction at 10 µM [3, 16]: 2.01 to 4
2 | C[C@H](c1cc2c(c(C(F)(F)F)c1)CN(c1cccc(C3(Cc4nncn4C)COC3)c1)C2=O)N1CC[C@H](F)C1 [Compound 413, 6-((R)-1-((S)-3-fluoropyrrolidin-1-yl)ethyl)-2-(3-(3-((4-methyl-4H-1,2,4-triazol-3-yl)methyl)oxetan-3-yl)phenyl)-4-(trifluoromethyl)isoindolin-1-one] | > 4 | > 4 | 3.01 to 4 | > 4 | 3.01 to 4 | > 4 | 1.4 to 1.6 | > 1.6 | 1.2 to 1.4 | 1.2 to 1.4 | 1.4 to 1.6 | > 1.6 | 1.2 to 1.4 | 1.4 to 1.6 | 2.01 to 4 | < 2 | 2.01 to 4 | > 4 | 3.01 to 4 | 2.01 to 4 | fold induction at 1.11 µM [3, 14]: 1.51 to 2; fold induction at 1.11 µM [3, 15]: 2.01 to 3; fold induction at 1.11 µM [3, 16]: 1.51 to 2; fold induction at 10 µM [3, 14]: 2.01 to 4; fold induction at 10 µM [3, 15]: > 4; fold induction at 10 µM [3, 16]: 1.51 to 2
